Where two headings read alike, the source gives them in different places. Values belong to the compound of their own block, whether it stands above or below them.
Experiments:
corn (Zea mays) = assay: Test C pre/postemergence; assay type: in vivo; settings: Zea mays; for Corn plant response rating (crop injury, 0 = no effect, 100 = complete kill) at 31 g/ha: 31 g ai/ha; for Corn plant response rating (crop injury, 0 = no effect, 100 = complete kill) at 62 g/ha: 62 g ai/ha; for Corn plant response rating (crop injury, 0 = no effect, 100 = complete kill) at 125 g/ha: 125 g ai/ha; for Corn plant response rating (crop injury, 0 = no effect, 100 = complete kill) at 250 g/ha: 250 g ai/ha; for Corn plant response rating (crop injury, 0 = no effect, 100 = complete kill) at 500 g/ha: 500 g ai/ha
Procedure, shortened: (§1)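 Percent control is a visual rating (0 none, 100 complete) taken against untreated plants after 12 to 14 days of greenhouse growth. Applications were made preemergence to seeded pots and postemergence to plants at the 1- to 4-leaf stage, in a non-phytotoxic surfactant-containing solvent.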

[1] = system: morningglory (Ipomoea coccinea); assay: Test C pre/postemergence; assay type: in vivo; settings: Ipomoea; for pest or weed control at 31 g/ha: 31 g ai/ha; for pest or weed control at 62 g/ha: 62 g ai/ha; for pest or weed control at 125 g/ha: 125 g ai/ha; for pest or weed control at 250 g/ha: 250 g ai/ha; for pest or weed control at 500 g/ha: 500 g ai/ha
Procedure, shortened: as §1

[2] = system: woolly cupgrass (Eriochloa villosa); assay: Test C pre/postemergence; assay type: in vivo; settings: Eriochloa villosa; for pest or weed control at 31 g/ha: 31 g ai/ha; for pest or weed control at 62 g/ha: 62 g ai/ha; for pest or weed control at 125 g/ha: 125 g ai/ha; for pest or weed control at 250 g/ha: 250 g ai/ha; for pest or weed control at 500 g/ha: 500 g ai/ha
Procedure, shortened: as §1

[3] = system: barnyardgrass (Echinochloa crus-galli); assay: Test C flooded paddy test; assay type: in vivo; settings: Flood
Procedure, shortened: (§2)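 Visual injury scores (0 = no effect, 100 = complete control) relative to untreated controls, assessed 12 to 14 days after treatment in the greenhouse. Species in the flooded paddy system—rice, barnyardgrass, duck salad, umbrella sedge—were treated at the 2-leaf stage.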

[4] = system: duck salad (Heteranthera limosa); assay: Test C flooded paddy test; assay type: in vivo; settings: Flood, scale 0 to 100
Procedure, shortened: as §2

rice (Oryza sativa) = assay: Test C flooded paddy test; assay type: in vivo; settings: Flood, scale 0 to 100
Procedure, shortened: as §2

[5] = system: umbrella sedge (Cyperus difformis); assay: Test C flooded paddy test; assay type: in vivo; settings: Flood, scale 0 to 100
Procedure, shortened: as §2

[6] = post-emergence, Postemergence, scale 0 to 100 (0 no effect, 100 complete control), read-out: Corn plant response rating
[7] = post-emergence, Postemergence, scale 0 to 100
[8] = pre-emergence, Preemergence, scale 0 to 100, 0 no effect, 100 complete control, read-out: Plant response rating, Corn
[9] = pre-emergence, Preemergence, scale 0 to 100
[10] = post-emergence, Postemergence, scale 0 to 100 (0 no effect, 100 complete control), read-out: Morningglory plant response rating
[11] = post-emergence, Postemergence, scale 0 to 100, read-out: Plant response rating, Morningglory
[12] = pre-emergence, Preemergence, scale 0 to 100, 0 no effect, 100 complete control, read-out: Plant response rating, Morningglory
[13] = pre-emergence, Preemergence, scale 0 to 100, read-out: Plant response rating, Morningglory
[14] = post-emergence, Postemergence, scale 0 to 100 (0 no effect, 100 complete control), read-out: Cupgrass, Woolly plant response rating
[15] = post-emergence, Postemergence, scale 0 to 100, read-out: Plant response rating, Cupgrass, Woolly
[16] = pre-emergence, Preemergence, scale 0 to 100, 0 no effect, 100 complete control, read-out: Plant response rating, Cupgrass, Woolly
[17] = pre-emergence, Preemergence, scale 0 to 100, read-out: Plant response rating, Cupgrass, Woolly
[18] = 500 g ai/ha, scale 0 to 100 (0 no effect, 100 complete control)
[19] = pre-emergence, Preemergence, scale 0 to 100, read-out: Plant response rating, Corn

melting point: 148 to 150 °C
Compound: COC(=O)c1nc(C2CC2)nc(N)c1Br [Compound 2, methyl 6-amino-5-bromo-2-cyclopropyl-4-pyrimidinecarboxylate]
Corn plant response rating (crop injury, 0 = no effect, 100 = complete kill) at 31 g/ha (corn (Zea mays); post-emergence, Postemergence, read-out: Plant response rating (scale of 0 to 100), Corn): 15%
Corn plant response rating (crop injury, 0 = no effect, 100 = complete kill) at 62 g/ha (corn (Zea mays); [6]): 15%
Corn plant response rating (crop injury, 0 = no effect, 100 = complete kill) at 125 g/ha (corn (Zea mays); [6]): 20%
Corn plant response rating (crop injury, 0 = no effect, 100 = complete kill) at 250 g/ha (corn (Zea mays); [7]): 30%
Corn plant response rating (crop injury, 0 = no effect, 100 = complete kill) at 31 g/ha (corn (Zea mays); [8]): 0%
Corn plant response rating (crop injury, 0 = no effect, 100 = complete kill) at 62 g/ha (corn (Zea mays); [8]): 0%
Corn plant response rating (crop injury, 0 = no effect, 100 = complete kill) at 250 g/ha (corn (Zea mays); [9]): 0%
pest or weed control at 31 g/ha ([1]; post-emergence, Postemergence, read-out: Plant response rating (scale of 0 to 100), Morningglory): 70%
pest or weed control at 62 g/ha [1, 10]: 75%
pest or weed control at 125 g/ha [1, 10]: 100%
pest or weed control at 250 g/ha [1, 11]: 100%
pest or weed control at 31 g/ha [1, 12]: 100%
pest or weed control at 62 g/ha [1, 12]: 100%
pest or weed control at 125 g/ha [1, 13]: 100%
pest or weed control at 250 g/ha [1, 13]: 100%
pest or weed control at 31 g/ha ([2]; post-emergence, Postemergence, read-out: Plant response rating (scale of 0 to 100), Cupgrass, Woolly): 40%
pest or weed control at 62 g/ha [2, 14]: 60%
pest or weed control at 125 g/ha [2, 14]: 70%
pest or weed control at 250 g/ha [2, 15]: 75%
pest or weed control at 31 g/ha [2, 16]: 0%
pest or weed control at 62 g/ha [2, 16]: 0%
pest or weed control at 125 g/ha [2, 17]: 0%
pest or weed control at 250 g/ha [2, 17]: 45%
Plant response rating, Barnyardgrass ([3]; 62 g ai/ha, scale 0 to 100): 0
Plant response rating, Barnyardgrass ([3]; 125 g ai/ha, scale 0 to 100): 20
Plant response rating, Barnyardgrass ([3]; 250 g ai/ha, scale 0 to 100): 45
Plant response rating, Barnyardgrass [3, 18]: 75
Plant response rating, Ducksalad ([4]; 62 g ai/ha): 50
Plant response rating, Ducksalad ([4]; 125 g ai/ha): 70
Plant response rating, Ducksalad ([4]; 250 g ai/ha): 90
Plant response rating, Ducksalad ([4]; 500 g ai/ha): 95
Plant response rating, Rice (rice (Oryza sativa); 62 g ai/ha): 0
Plant response rating, Rice (rice (Oryza sativa); 125 g ai/ha): 25
Plant response rating, Rice (rice (Oryza sativa); 250 g ai/ha): 45
Plant response rating, Rice (rice (Oryza sativa); 500 g ai/ha): 65
Plant response rating, Sedge, Umbrella ([5]; 62 g ai/ha): 0
Plant response rating, Sedge, Umbrella ([5]; 125 g ai/ha): 0
Plant response rating, Sedge, Umbrella ([5]; 250 g ai/ha): 0
Plant response rating, Sedge, Umbrella ([5]; 500 g ai/ha): 25

melting point: 87 to 89 °C
Compound: CCOC(=O)c1nc(C2CC2)nc(N)c1Cl [Compound 4, ethyl 6-amino-5-chloro-2-cyclopropyl-4-pyrimidinecarboxylate]
Corn plant response rating (crop injury, 0 = no effect, 100 = complete kill) at 62 g/ha (corn (Zea mays); [6]): 0%
Corn plant response rating (crop injury, 0 = no effect, 100 = complete kill) at 125 g/ha (corn (Zea mays); [6]): 80%
Corn plant response rating (crop injury, 0 = no effect, 100 = complete kill) at 250 g/ha (corn (Zea mays); [7]): 90%
Corn plant response rating (crop injury, 0 = no effect, 100 = complete kill) at 500 g/ha (corn (Zea mays); [7]): 95%
Corn plant response rating (crop injury, 0 = no effect, 100 = complete kill) at 125 g/ha (corn (Zea mays); [19]): 0%
Corn plant response rating (crop injury, 0 = no effect, 100 = complete kill) at 250 g/ha (corn (Zea mays); [9]): 75%
Corn plant response rating (crop injury, 0 = no effect, 100 = complete kill) at 500 g/ha (corn (Zea mays); [9]): 90%
pest or weed control at 62 g/ha [1, 10]: 15%
pest or weed control at 125 g/ha [1, 10]: 100%
pest or weed control at 250 g/ha [1, 11]: 100%
pest or weed control at 500 g/ha [1, 11]: 100%
pest or weed control at 62 g/ha [1, 12]: 100%
pest or weed control at 125 g/ha [1, 13]: 100%
pest or weed control at 250 g/ha [1, 13]: 100%
pest or weed control at 500 g/ha [1, 13]: 100%
pest or weed control at 62 g/ha [2, 14]: 60%
pest or weed control at 125 g/ha [2, 14]: 70%
pest or weed control at 250 g/ha [2, 15]: 85%
pest or weed control at 500 g/ha [2, 15]: 95%
pest or weed control at 62 g/ha [2, 16]: 0%
pest or weed control at 125 g/ha [2, 17]: 80%
pest or weed control at 250 g/ha [2, 17]: 95%
pest or weed control at 500 g/ha [2, 17]: 95%
Plant response rating, Barnyardgrass ([3]; 62 g ai/ha, scale 0 to 100): 0
Plant response rating, Barnyardgrass ([3]; 125 g ai/ha, scale 0 to 100): 60
Plant response rating, Barnyardgrass ([3]; 250 g ai/ha, scale 0 to 100): 65
Plant response rating, Barnyardgrass [3, 18]: 85
Plant response rating, Ducksalad ([4]; 62 g ai/ha): 70
Plant response rating, Ducksalad ([4]; 125 g ai/ha): 80
Plant response rating, Ducksalad ([4]; 250 g ai/ha): 90
Plant response rating, Ducksalad ([4]; 500 g ai/ha): 100
Plant response rating, Rice (rice (Oryza sativa); 62 g ai/ha): 0
Plant response rating, Rice (rice (Oryza sativa); 125 g ai/ha): 40
Plant response rating, Rice (rice (Oryza sativa); 250 g ai/ha): 75
Plant response rating, Rice (rice (Oryza sativa); 500 g ai/ha): 80
Plant response rating, Sedge, Umbrella ([5]; 62 g ai/ha): 0
Plant response rating, Sedge, Umbrella ([5]; 125 g ai/ha): 30
Plant response rating, Sedge, Umbrella ([5]; 250 g ai/ha): 65
Plant response rating, Sedge, Umbrella ([5]; 500 g ai/ha): 75

melting point: 129 to 131 °C
Compound: Nc1nc(C2CC2)nc(C(=O)OCc2ccccc2)c1Br [Compound 22, phenylmethyl 6-amino-5-bromo-2-cyclopropyl-4-pyrimidinecarboxylate]
Corn plant response rating (crop injury, 0 = no effect, 100 = complete kill) at 62 g/ha (corn (Zea mays); [6]): 30%
Corn plant response rating (crop injury, 0 = no effect, 100 = complete kill) at 125 g/ha (corn (Zea mays); [6]): 40%
Corn plant response rating (crop injury, 0 = no effect, 100 = complete kill) at 250 g/ha (corn (Zea mays); [7]): 60%
Corn plant response rating (crop injury, 0 = no effect, 100 = complete kill) at 500 g/ha (corn (Zea mays); [7]): 65%
Corn plant response rating (crop injury, 0 = no effect, 100 = complete kill) at 62 g/ha (corn (Zea mays); [8]): 40%
Corn plant response rating (crop injury, 0 = no effect, 100 = complete kill) at 125 g/ha (corn (Zea mays); [19]): 50%
Corn plant response rating (crop injury, 0 = no effect, 100 = complete kill) at 250 g/ha (corn (Zea mays); [9]): 65%
Corn plant response rating (crop injury, 0 = no effect, 100 = complete kill) at 500 g/ha (corn (Zea mays); [9]): 65%
pest or weed control at 62 g/ha [1, 10]: 90%
pest or weed control at 125 g/ha [1, 10]: 90%
pest or weed control at 250 g/ha [1, 11]: 95%
pest or weed control at 500 g/ha [1, 11]: 100%
pest or weed control at 62 g/ha [1, 12]: 100%
pest or weed control at 125 g/ha [1, 13]: 100%
pest or weed control at 250 g/ha [1, 13]: 100%
pest or weed control at 500 g/ha [1, 13]: 100%
pest or weed control at 62 g/ha [2, 14]: 60%
pest or weed control at 125 g/ha [2, 14]: 60%
pest or weed control at 250 g/ha [2, 15]: 60%
pest or weed control at 500 g/ha [2, 15]: 65%
pest or weed control at 62 g/ha [2, 16]: 40%
pest or weed control at 125 g/ha [2, 17]: 95%
pest or weed control at 250 g/ha [2, 17]: 95%
pest or weed control at 500 g/ha [2, 17]: 95%
Plant response rating, Barnyardgrass ([3]; 62 g ai/ha, scale 0 to 100): 0
Plant response rating, Barnyardgrass ([3]; 125 g ai/ha, scale 0 to 100): 0
Plant response rating, Barnyardgrass ([3]; 250 g ai/ha, scale 0 to 100): 40
Plant response rating, Barnyardgrass [3, 18]: 70
Plant response rating, Ducksalad ([4]; 62 g ai/ha): 30
Plant response rating, Ducksalad ([4]; 125 g ai/ha): 60
Plant response rating, Ducksalad ([4]; 250 g ai/ha): 90
Plant response rating, Ducksalad ([4]; 500 g ai/ha): 95
Plant response rating, Rice (rice (Oryza sativa); 62 g ai/ha): 20
Plant response rating, Rice (rice (Oryza sativa); 125 g ai/ha): 20
Plant response rating, Rice (rice (Oryza sativa); 250 g ai/ha): 40
Plant response rating, Rice (rice (Oryza sativa); 500 g ai/ha): 60
Plant response rating, Sedge, Umbrella ([5]; 62 g ai/ha): 0
Plant response rating, Sedge, Umbrella ([5]; 125 g ai/ha): 30
Plant response rating, Sedge, Umbrella ([5]; 250 g ai/ha): 75
Plant response rating, Sedge, Umbrella ([5]; 500 g ai/ha): 95

Source: patent US8802597B2, “Herbicidal pyrimidines” (E I du Pont de Nemours and Company, priority 2003, dated 2014)
